# Bridge positions count the residues as written; N and C are the ends. Square brackets hold non-standard residues; d marks the D form. Peptide text beside a SMILES is read from it. * marks the point of attachment. Ileψ(thiazoline)Cys = CC[C@H](C)[C@H](N)C1=N[C@H](C(=O)*)CS1; dOrn = NCCC[C@@H](N)C(=O)O
# Test system: Eimeria maxima and Clostridium perfringens
# Type: in vivo, Cobb 500 Chicks (Gallus gallus domesticus)
# Conditions: in words
smiles,measurement,value
"CC[C@H](C)[C@H](N)C1=N[C@H](C(=O)N[C@@H](CC(C)C)C(=O)N[C@H](CCC(=O)O)C(=O)N[C@H](C(=O)N[C@H]2CCCCNC(=O)[C@H](CC(N)=O)NC(=O)[C@@H](CC(=O)O)NC(=O)[C@H](Cc3cnc[nH]3)NC(=O)[C@@H](Cc3ccccc3)NC(=O)[C@H]([C@@H](C)CC)NC(=O)[C@@H](CCCN)NC2=O)[C@@H](C)CC)CS1 [Treatment Group 5, Bacitracin] ({Ileψ(thiazoline)Cys}-L[dE]IK[dOrn]I[dF]H[dD]N; lactam 4-C)",weight gain over the infected negative control,significant increase in weight gain

# — patent publication US20190300824A1, “BACTERIAL SPORE COMPOSITIONS FOR […]” (priority 2014, published 2019)
